Measurements: US11655252B2, “Aminopyrimidinyl derivatives” (Pfizer Inc., priority 2020, dated 2023)

How the values were obtained:
[1] = target: JAK1 (Homo sapiens (Human), UniProt P23458); experiment: JAK Family Caliper Enzyme Assay (JAK1); assay type: biochemical; settings: recombinant human kinase domain, 1 mM ATP
Method: (§1) JAK Family Caliper Enzyme Assay
(§2) Compounds of the invention were evaluated by in vitro methods to determine their respective ability to inhibit the JAK kinases (TYK2, JAK1, JAK2, JAK3). Inhibitory activity was determined by using a microfluidic assay (LabChip 3000™ mobility shift technology, Caliper Life Science) to monitor phosphorylation of a synthetic peptide by the recombinant human kinase domain of each of the four members of the JAK family, JAK1, JAK2, JAK3 and TYK2. Reaction mixtures contained 1 μM of a fluorescently labeled synthetic peptide, a concentration less than the apparent Km, and 1 mM ATP.
(§3) Compounds in DMSO solution were added to a 384-well plate. Reaction mixtures contained 10 mM HEPES, pH 7.4, 10 mM MgCl2, 0.01% BSA, 0.0005% Tween 20™, 1 mM ATP and 1 μM peptide substrate. The JAK1 and TYK2 assays contained 1 μM of the IRStide peptide (5FAM-KKSRGDYMTMQID) and the JAK2 and JAK3 assays contained 1 μM of the JAKtide peptide (FITC-KGGEEEEYFELVKK). The assays were initiated by the addition of 20 nM JAK1, 1 nM JAK2, 1 nM JAK or 1 nM TYK2 enzyme and were incubated at room temperature for three hours for JAK1, 60 minutes for JAK2, 75 minutes for JAK3 or 135 minutes for TYK2. Enzyme concentrations and incubation times were optimized for each new enzyme preps and were modified slightly over time to ensure 20% to 30% phosphorylation. The assays were stopped with 15 μL of 180 mM HEPES, pH 7.4, 20 mM EDTA, and 0.2% Coating Reagent 3. The assay plates were placed on a Caliper Life Science LC3000 instrument, and each well was sampled using appropriate separation conditions to measure the unphosphorylated and phosphorylated peptide.
(§4) The data was collected using the HTS Well Analyzer software from Caliper Life Sciences. The data output for data analysis is the percent product converted calculated on peak height (Equation 1). % product converted=100*((product)/(product+substrate)) Equation 1: […]
(§5) The percent effect at each compound concentration was calculated based on the positive and negative control well contained within each assay plate (Equation 2). […] The negative control wells contained DMSO alone (at the same concentration as the compound wells) that was used to set the baseline activity in the assay (i.e., uninhibited JAK1, JAK2, JAK3 or TYK2). % effect=100*((sample well−negative control)/(positive control−negative control)) Equation 2: […]
(§6) The percent effect was plotted against the compound concentration compound. An unconstrained sigmoid curve was fitted using a 4 parameter logistic model and the compound concentration required for 50% inhibition (IC50) was determined (Equation 3). y=((max−min)/(1+((x/IC50)^s)))+min Equation 3: […]

[2] = target: JAK2 (Homo sapiens (Human), UniProt O60674); experiment: JAK Family Caliper Enzyme Assay (JAK2); assay type: biochemical; settings: recombinant human kinase domain, 1 mM ATP
Sequence of JAK2 (O60674 849-1124): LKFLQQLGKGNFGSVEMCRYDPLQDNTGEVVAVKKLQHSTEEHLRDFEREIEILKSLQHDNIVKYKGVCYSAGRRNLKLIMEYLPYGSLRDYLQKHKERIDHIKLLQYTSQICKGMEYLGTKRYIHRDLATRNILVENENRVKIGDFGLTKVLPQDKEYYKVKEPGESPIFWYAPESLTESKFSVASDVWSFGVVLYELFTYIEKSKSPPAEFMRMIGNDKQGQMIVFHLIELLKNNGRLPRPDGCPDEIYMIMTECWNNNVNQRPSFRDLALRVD
Method: as §1, §2, §3, §4, §5, §6

[3] = target: JAK3 (Homo sapiens (Human), UniProt P52333); experiment: JAK Family Caliper Enzyme Assay (JAK3); assay type: biochemical; settings: recombinant human kinase domain, 1 mM ATP
Sequence of JAK3 (P52333 822-1111): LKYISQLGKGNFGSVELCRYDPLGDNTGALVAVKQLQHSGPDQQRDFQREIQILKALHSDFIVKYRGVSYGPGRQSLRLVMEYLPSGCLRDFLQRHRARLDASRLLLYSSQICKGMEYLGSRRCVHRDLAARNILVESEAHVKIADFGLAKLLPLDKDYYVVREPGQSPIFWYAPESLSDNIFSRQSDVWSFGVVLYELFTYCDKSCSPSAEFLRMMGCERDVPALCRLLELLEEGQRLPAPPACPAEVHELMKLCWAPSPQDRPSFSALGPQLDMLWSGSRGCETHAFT
Method: as §1, §2, §3, §4
The percent effect at each compound concentration was calculated based on the positive and negative control well contained within each assay plate (Equation 2). […]

[4] = target: TYK2 (Homo sapiens (Human), UniProt P29597); experiment: JAK Family Caliper Enzyme Assay (TYK2); assay type: biochemical; settings: recombinant human kinase domain, 1 mM ATP
Sequence of TYK2 (P29597 897-1176): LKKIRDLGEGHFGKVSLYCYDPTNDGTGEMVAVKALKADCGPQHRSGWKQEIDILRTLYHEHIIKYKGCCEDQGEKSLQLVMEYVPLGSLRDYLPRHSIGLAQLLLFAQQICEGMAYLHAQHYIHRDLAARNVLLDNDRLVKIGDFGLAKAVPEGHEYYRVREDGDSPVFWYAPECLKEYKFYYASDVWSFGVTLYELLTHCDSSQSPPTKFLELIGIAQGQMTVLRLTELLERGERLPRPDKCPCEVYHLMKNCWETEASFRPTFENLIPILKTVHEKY
Method: as §1, §2, §3, §4, §5, §6

[5] = system: interferon alpha signalling (TYK2 and JAK1), pSTAT3 in human whole blood lymphocytes; experiment: HWB INF Alpha Induced STAT3 Phosphorylation Assay; assay type: cell-based; settings: Lymphocyte, IFN alpha 5000 U/ml, flow cytometry
Method: HWB INF Alpha Induced STAT3 Phosphorylation Assay
Compounds of this invention were assessed for their ability to inhibit interferon alpha signalling in a human whole blood flow cytometry assay. Interferon alpha signals through TYK2 and JAK1. Test articles were prepared as 30 mM stocks in 100% DMSO, and then diluted to 10 mM. An 11-point 3 dilution series was created in DMSO with a top concentration of […]. Further dilution was done by adding 4 μL of the above test article solutions into 96 μL of PBS with a top concentration of 400 μM. Human whole blood (HWB) was collected from healthy donors via vein puncture into Vacutainer™ collection tubes containing sodium heparin (Catalog No. 366480, Becton Dickinson, Franklin Lakes, N.J.). Blood was warmed to 37° C. prior to use. […]
Samples were transferred to 96-well U bottom plates (Falcon #353077) and flow cytometric analysis was performed on an LSRFortessa equipped with a HTS plate loader (BD Biosciences). […] Background fluorescence was defined using unstimulated cells and a gate was placed at the foot of the peak to include ˜0.5% gated population. […] Relative fluorescence unit (RFU), which measures the level of phospho STAT, was calculated by multiplying the percent positive population and its mean fluorescence. […] Inhibition curves and IC50 values were determined using the Prism version 7 software (GraphPad, La Jolla, Calif.).

[6] = system: CXCL10 biomarker in Th2 stimulated ex vivo human skin; experiment: Biomarker Modulation in Th2 Stimulated Ex Vivo Human Skin Assay; assay type: cell-based; settings: 1% w/w formulation applied topically, qPCR
Method: Biomarker Modulation in Th2 Stimulated Ex Vivo Human Skin Assay Compounds of this invention were assessed for their ability to modulate CXCL10 biomarker in Th2 stimulated ex vivo human skin following topical application. […] Freshly excised human skin from surgery specimens was cut with a dermatome to 750 μm thickness and mounted in a 7 mm static Franz cell for tissue culture such that the upper surface of the skin was exposed to air in the Franz cell donor chamber, and the bottom (dermis) was exposed to Cornification medium. A total of two skin donors were used (n=6 per treatment per donor). Incubations were carried out in a standard tissue culture incubator. Compound was dissolved in the indicated formulation at a concentration of 1% w/w and added apically to the skin at 10 μL per sample (approximately 18 μL per cm^2) at 4-6 replicates per donor. After 16 h media was replaced with stimulation cocktail containing anti-CD3 mAb, anti-CD28 mAb, IL-2, IL-4, IL-33 and TSLP. Incubation was continued for additional 24 hr at 37° C. Then skin was harvested, treated with RNALater solution and processed for RNA extraction and qPCR that was run in duplicates. MMP12, CCL26, CXCL10 and Filaggrin may be measured. Results for each sample were normalized to its own GAPDH internal standard which was not appreciably affected by stimulus or compound. Fold change was normalized to untreated sample.

[7] = In Vitro Human Hepatocyte Clearance Assay; assay type: in vitro ADME; settings: cryopreserved human hepatocytes in suspension, 0.5 million cells/mL, 1 μM test compound, read-out: HHEP CLint, app (μL/min/million cells)
Method: In Vitro Human Hepatocyte Clearance Assay A high-throughput human hepatocyte substrate-depletion assay was performed in a 384-well formatted as described previously [Di et al., Eur. J. Med. Chem., 2012, 57, 441]. Briefly, the cryopreserved human hepatocytes were thawed and resuspended in Williams' E medium supplemented with HEPES and Na2CO3. The cells were counted using the trypan blue exclusion method. Test compounds were added to suspended human hepatocytes in Williams' E medium buffer and incubated at 37° C. in a humidified CO2 incubator (75% relative humidity, 5% CO2/air) for 4 hours. The final incubation contained 0.5 million cells/mL and 1 μM test compound in 15 μL total volume with 0.1% DMSO. At various time points (0, 3, 10, 30, 60, 120, and 240 minutes), an aliquot of the sample was taken and quenched with cold acetonitrile containing internal standard. The samples were centrifuged at 3000 rpm for 10 minutes at 4° C., and the supernatants were transferred to new plates, which were sealed before performing LC-MS/MS analysis. The apparent metabolic intrinsic clearance (CLint, met, app) was determined based on the substrate-depletion half-life estimated from the ratio of the peak area response of each compound to that of the internal standard, as described earlier [Di et al., Eur. J. Med. Chem., 2012, 57, 441].

Sequence of JAK1 (P23458 875-1153): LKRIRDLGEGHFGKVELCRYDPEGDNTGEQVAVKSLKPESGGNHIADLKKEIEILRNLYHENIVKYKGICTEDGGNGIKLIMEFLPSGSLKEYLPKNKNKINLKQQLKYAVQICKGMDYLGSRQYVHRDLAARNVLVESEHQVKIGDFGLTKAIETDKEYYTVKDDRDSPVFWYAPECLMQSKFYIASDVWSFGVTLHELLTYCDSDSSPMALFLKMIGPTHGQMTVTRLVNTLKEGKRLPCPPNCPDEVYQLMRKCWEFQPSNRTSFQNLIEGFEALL

SMILES	IC50 [1] [nM]	IC50 [2] [nM]	IC50 [3] [nM]	IC50 [4] [nM]	IC50 [5] [nM]	% inhibition CXCL10 [6] [%]	hepatocyte CLint at 1 μM [7] [µL/min/1e6 cells]
CCCn1cc(Nc2nccc(N3C[C@H]4CC[C@@H](C3)N4C(=O)[C@@H]3CC3(F)F)n2)cn1 [IA, ((S)-2,2-Difluorocyclopropyl)((1R,5S)-3-(2-((1-propyl-1H-pyrazol-4-yl)amino)pyrimidin-4-yl)-3,8-diazabicyclo[3.2.1]octan-8-yl)methanone]	33	80	> 9580	37	66	94.2	8.6
C[C@@H](O)Cn1cc(Nc2nccc(N3C[C@H]4CC[C@@H](C3)N4C(=O)[C@@H]3CC3(F)F)n2)cn1 [IB, ((S)-2,2-Difluorocyclopropyl)((1R,5S)-3-(2-((1-((R)-2-hydroxypropyl)-1H-pyrazol-4-yl)amino)pyrimidin-4-yl)-3,8-diazabicyclo[3.2.1]octan-8-yl)methanone]	59	223	> 10000	82	–	–	–
C[C@H](O)Cn1cc(Nc2nccc(N3C[C@H]4CC[C@@H](C3)N4C(=O)[C@@H]3CC3(F)F)n2)cn1 [IC, ((S)-2,2-Difluorocyclopropyl)((1R,5S)-3-(2-((1-((S)-2-hydroxypropyl)-1H-pyrazol-4-yl)amino)pyrimidin-4-yl)-3,8-diazabicyclo[3.2.1]octan-8-yl)methanone]	44	139	–	65	–	–	–
O=C([C@@H]1CC1(F)F)N1[C@@H]2CC[C@H]1CN(c1ccnc(Nc3cnn(CCCO)c3)n1)C2 [ID]	47	81	> 9280	30	–	–	–
Cn1cc(Nc2nccc(N3C[C@H]4CC[C@@H](C3)N4C(=O)[C@@H]3CC3(F)F)n2)cn1 [II, ((S)-2,2-difluorocyclopropyl)-((1R,5S)-3-(2-((1-methyl-1H-pyrazol-4-yl)amino)pyrimidin-4-yl)-3,8-diazabicyclo[3.2.1]octan-8-yl)methanone, reference compound]	–	–	–	–	–	72.4	< 0.6
